In brackets after ≈: the same amount, converted by molar mass.
System: up to 32 different microorganisms
Test: in vitro antibacterial activity (MIC), agar dilution on Brain Heart Infusion (BHI) agar with Steers replicator
Assay type: cell-based
Conditions: unit assumed
Description: Representative compounds of the present invention were assayed in vitro for antibacterial activity as follows: Twelve petri dishes containing successive aqueous dilutions of the test compound mixed with 10 mL of sterilized Brain Heart Infusion (BHI) agar (Difco 0148-01-5) were prepared. Each plate was inoculated with 1:100 (or 1:10 for slow-growing strains, such as Micrococcus and Streptococcus) dilutions of up to 32 different microorganisms, using a Steers replicator block. The inoculated plates were incubated at 35°-37° C. for 20 to 24 hours. In addition, a control plate, using BHI agar containing no test compound, was prepared and incubated at the beginning and end of each test.
An additional plate containing a compound having known susceptibility patterns for the organisms being tested and belonging to the same antibiotic class as the test compound was also prepared and incubated as a further control, as well as to provide test-to-test comparability. Erythromycin A was used for this purpose.
After incubation, each plate was visually inspected. The minimum inhibitory concentration (MIC) was defined as the lowest concentration of drug yielding no growth, a slight haze, or sparsely isolated colonies on the inoculum spot as compared to the growth control.

## CC[C@H]1OC(=O)[C@H](C)C(=O)[C@H](C)[C@@H](O[C@@H]2O[C@H](C)C[C@H](N(C)C)[C@H]2O)[C@@](C)(OCC2COC(C)(C)O2)C[C@@H](C)C(=O)[C@H](C)[C@H]2NC(=O)O[C@@]21C (stereo partly drawn) [Example 259, Compound of Formula (IX): L is CO, T is NH, R is —CH2-(2,2-dimethyl-1,3-dioxolan-4-yl)]
Organism code AA
  MIC: 6.2 µg/mL
Organism code BB
  MIC: 6.2 µg/mL
Organism code CC
  MIC: > 100 µg/mL
Organism code DD
  MIC: 12.5 µg/mL
Organism code EE
  MIC: 6.2 µg/mL
Organism code FF
  MIC: 6.2 µg/mL
Organism code GG
  MIC: > 100 µg/mL
Organism code HH
  MIC: 6.2 µg/mL
Organism code II
  MIC: 0.78 µg/mL
Organism code JJ
  MIC: 0.39 µg/mL
Organism code KK
  MIC: 0.78 µg/mL
Organism code LL
  MIC: 0.39 µg/mL
Organism code MM
  MIC: > 100 µg/mL
Organism code NN
  MIC: 1.56 µg/mL
Organism code OO
  MIC: 0.78 µg/mL
Organism code PP
  MIC: 1.56 µg/mL
Organism code QQ
  MIC: > 100 µg/mL
Organism code RR
  MIC: 1.56 µg/mL
Organism code SS
  MIC: > 100 µg/mL
Organism code TT
  MIC: > 100 µg/mL
Organism code UU
  MIC: 12.5 µg/mL
Organism code VV
  MIC: 3.1 µg/mL
Organism code WW
  MIC: 128 µg/mL
Organism code XX
  MIC: 1 µg/mL
Organism code YY
  MIC: 1 µg/mL
Organism code ZZ
  MIC: > 128 µg/mL
Organism code ZZA
  MIC: 4 µg/mL

## CCC1OC(=O)C(C)C(=O)C(C)C(OC2OC(C)CC(N(C)C)C2O)C(C)(OCC=Cc2ccc3nccnc3c2)CC(C)C(=O)C(C)C2NC(=O)OC12C (stereo not drawn) [Example 207, R is —CH2CH═CH-(6-quinoxalinyl)]
Organism code AA
  MIC: 0.1 µg/mL (≈ 0.13 µM)
Organism code BB
  MIC: 0.1 µg/mL (≈ 0.13 µM)
Organism code CC
  MIC: > 100 µg/mL
Organism code DD
  MIC: 0.1 µg/mL (≈ 0.13 µM)
Organism code EE
  MIC: 0.1 µg/mL (≈ 0.13 µM)
Organism code FF
  MIC: 0.1 µg/mL (≈ 0.13 µM)
Organism code GG
  MIC: > 100 µg/mL
Organism code HH
  MIC: 0.1 µg/mL (≈ 0.13 µM)
Organism code II
  MIC: 0.02 µg/mL (≈ 0.0261 µM)
Organism code JJ
  MIC: ≤ 0.005 µg/mL
Organism code KK
  MIC: ≤ 0.005 µg/mL
Organism code LL
  MIC: 0.01 µg/mL (≈ 0.013 µM)
Organism code MM
  MIC: 1.56 µg/mL (≈ 2.03 µM)
Organism code NN
  MIC: 0.2 µg/mL (≈ 0.261 µM)
Organism code OO
  MIC: 0.01 µg/mL (≈ 0.013 µM)
Organism code PP
  MIC: 0.1 µg/mL (≈ 0.13 µM)
Organism code QQ
  MIC: 25 µg/mL (≈ 32.6 µM)
Organism code RR
  MIC: 0.2 µg/mL (≈ 0.261 µM)
Organism code SS
  MIC: 50 µg/mL (≈ 65.2 µM)
Organism code TT
  MIC: > 100 µg/mL
Organism code UU
  MIC: 0.39 µg/mL (≈ 0.509 µM)
Organism code VV
  MIC: 0.02 µg/mL (≈ 0.0261 µM)
Organism code WW
  MIC: 2 µg/mL (≈ 2.61 µM)
Organism code XX
  MIC: 0.015 µg/mL (≈ 0.0196 µM)
Organism code YY
  MIC: 0.015 µg/mL (≈ 0.0196 µM)
Organism code ZZ
  MIC: 64 µg/mL (≈ 83.4 µM)
Organism code ZZA
  MIC: 0.5 µg/mL (≈ 0.652 µM)

## CC[C@H]1OC(=O)[C@H](C)C(=O)[C@H](C)[C@@H](O[C@@H]2O[C@H](C)C[C@H](N(C)C)[C@H]2O)[C@@](C)(OCC=NOCc2ccc([N+](=O)[O-])cc2)C[C@@H](C)C(=O)[C@H](C)[C@H]2NC(=O)O[C@@]21C [Example 230, Compound of Formula (IX): L is CO, T is NH, R is —CH2CH═NOCH2(4-NO2-phenyl)]
Organism code AA
  MIC: 0.1 µg/mL
Organism code BB
  MIC: 0.1 µg/mL
Organism code CC
  MIC: > 100 µg/mL
Organism code DD
  MIC: 0.1 µg/mL
Organism code EE
  MIC: 0.1 µg/mL
Organism code FF
  MIC: 0.2 µg/mL
Organism code GG
  MIC: > 100 µg/mL
Organism code HH
  MIC: 0.1 µg/mL
Organism code II
  MIC: 0.05 µg/mL
Organism code JJ
  MIC: ≤ 0.005 µg/mL
Organism code KK
  MIC: ≤ 0.005 µg/mL
Organism code LL
  MIC: ≤ 0.005 µg/mL
Organism code MM
  MIC: > 100 µg/mL
Organism code NN
  MIC: 0.05 µg/mL
Organism code OO
  MIC: 0.05 µg/mL
Organism code PP
  MIC: 0.2 µg/mL
Organism code QQ
  MIC: 100 µg/mL
Organism code RR
  MIC: 0.39 µg/mL
Organism code SS
  MIC: > 100 µg/mL
Organism code TT
  MIC: > 100 µg/mL
Organism code UU
  MIC: 0.78 µg/mL
Organism code VV
  MIC: 0.05 µg/mL
Organism code WW
  MIC: 2 µg/mL
Organism code XX
  MIC: 0.03 µg/mL
Organism code YY
  MIC: 0.015 µg/mL
Organism code ZZ
  MIC: 128 µg/mL
Organism code ZZA
  MIC: 0.25 µg/mL

## CC[C@H]1OC(=O)[C@H](C)C(=O)[C@H](C)[C@@H](O[C@@H]2O[C@H](C)C[C@H](N(C)C)[C@H]2O)[C@@](C)(OCCCc2ccccc2)C[C@@H](C)C(=O)[C@H](C)[C@H]2OC(=O)O[C@@]21C [Example 73, Compound of Formula (IX): L is CO, T is O, R is —CH2CH2CH2-Phenyl]
Candida albicans CCH 442 (code TT)
  MIC: > 100 µg/mL
Enterococcus faecism ATCC 8043 (code II)
  MIC: 0.1 µg/mL
Escherichia coli DC-2 (code SS)
  MIC: > 100 µg/mL
Escherichia coli JUHL (code QQ)
  MIC: > 100 µg/mL
Escherichia coli SS (code RR)
  MIC: 3.1 µg/mL
Haemophilis influenzae DILL AMP R (code WW)
  MIC: 16 µg/mL
Micrococcus luteus ATCC 4698 (code PP)
  MIC: 0.2 µg/mL
Micrococcus luteus ATCC 9341 (code OO)
  MIC: 0.1 µg/mL
Mycobacterium smegmatis ATCC 114 (code UU)
  MIC: 0.78 µg/mL
Nocardia Asteroides ATCC9970 (code VV)
  MIC: 0.39 µg/mL
Staphylococcus aureus 1775 (code GG)
  MIC: 100 µg/mL
Staphylococcus aureus A5177 (code BB)
  MIC: 0.39 µg/mL
Staphylococcus aureus A-5278 (code CC)
  MIC: > 100 µg/mL
Staphylococcus aureus ATCC 6538P (code AA)
  MIC: 0.39 µg/mL
Staphylococcus aureus CMX 553 (code FF)
  MIC: 0.39 µg/mL
Staphylococcus aureus CMX 642A (code DD)
  MIC: 0.39 µg/mL
Staphylococcus aureus NCTC10649M (code EE)
  MIC: 0.39 µg/mL
Staphylococcus epidermidis 3519 (code HH)
  MIC: 0.39 µg/mL
Streptococcus Pneumonia 5649 (code ZZA)
  MIC: 1 µg/mL
Streptococcus Pneumonia 5979 (code ZZ)
  MIC: 64 µg/mL
Streptococcus Pneumonia ATCC6303 (code XX)
  MIC: 0.125 µg/mL
Streptococcus Pneumonia GYR 1171 (code YY)
  MIC: 0.125 µg/mL
Streptococcus agalactiae CMX 508 (code KK)
  MIC: 0.05 µg/mL
Streptococcus bovis A-5169 (code JJ)
  MIC: 0.05 µg/mL
Streptococcus pyogenes 930 (code MM)
  MIC: 12.5 µg/mL
Streptococcus pyogenes EES61 (code LL)
  MIC: 0.05 µg/mL
Streptococcus pyogenes PIU 2548 (code NN)
  MIC: 0.2 µg/mL

## CCC1OC(=O)C(C)C(=O)C(C)C(OC2OC(C)CC(N(C)C)C2O)C(C)(OCC=Cc2cnc3ccc(F)cc3c2)CC(C)C(=O)C(C)C2NC(=O)OC12C (stereo not drawn) [Example 215, R is —CH2CH═CH-(6-fluoro-3-quinolyl)]
Organism code AA
  MIC: 0.05 µg/mL (≈ 0.0638 µM)
Organism code BB
  MIC: 0.1 µg/mL (≈ 0.128 µM)
Organism code CC
  MIC: > 100 µg/mL
Organism code DD
  MIC: 0.1 µg/mL (≈ 0.128 µM)
Organism code EE
  MIC: 0.1 µg/mL (≈ 0.128 µM)
Organism code FF
  MIC: 0.1 µg/mL (≈ 0.128 µM)
Organism code GG
  MIC: > 100 µg/mL
Organism code HH
  MIC: 0.1 µg/mL (≈ 0.128 µM)
Organism code II
  MIC: 0.05 µg/mL (≈ 0.0638 µM)
Organism code JJ
  MIC: 0.01 µg/mL (≈ 0.0128 µM)
Organism code KK
  MIC: 0.01 µg/mL (≈ 0.0128 µM)
Organism code LL
  MIC: 0.01 µg/mL (≈ 0.0128 µM)
Organism code MM
  MIC: 0.78 µg/mL (≈ 0.995 µM)
Organism code NN
  MIC: 0.1 µg/mL (≈ 0.128 µM)
Organism code OO
  MIC: 0.01 µg/mL (≈ 0.0128 µM)
Organism code PP
  MIC: 0.2 µg/mL (≈ 0.255 µM)
Organism code QQ
  MIC: 25 µg/mL (≈ 31.9 µM)
Organism code RR
  MIC: 0.2 µg/mL (≈ 0.255 µM)
Organism code SS
  MIC: > 100 µg/mL
Organism code TT
  MIC: > 100 µg/mL
Organism code UU
  MIC: 0.78 µg/mL (≈ 0.995 µM)
Organism code VV
  MIC: 0.02 µg/mL (≈ 0.0255 µM)
Organism code WW
  MIC: 2 µg/mL (≈ 2.55 µM)
Organism code XX
  MIC: 0.015 µg/mL (≈ 0.0191 µM)
Organism code YY
  MIC: ≤ 0.004 µg/mL
Organism code ZZ
  MIC: 16 µg/mL (≈ 20.4 µM)
Organism code ZZA
  MIC: 0.25 µg/mL (≈ 0.319 µM)
